Reference: US10743540B2, “3-amino-1,2,4-triazine derivatives and their use for controlling undesired plant growth” (BAYER CROPSCIENCE AKTIENGESELLSCHAFT, priority 2016, dated 2020)

Legend:
Assay type in all cases: in vivo
[1] = system: ABUTH: Abutilon theophrasti; assay: Pre-emergence herbicidal effect; conditions: application rate 320 g/ha, scored visually after 3 weeks, 100% = plants have died, 0% = like control plants
Summary of the method: (§1)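 Visual scoring after a 3-week greenhouse period gave percent activity (100% = dead, 0% = like control). Treatment was pre-emergence: aqueous WP or EC formulations with 0.2% wetting agent, applied at 600 to 800 L/ha onto covering soil over seeds in sandy loam.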

[2] = system: ALOMY: Alopecurus myosuroides; assay: Pre-emergence herbicidal effect; conditions: application rate 320 g/ha, scored visually after 3 weeks, 100% = plants have died, 0% = like control plants
Summary of the method: as §1

[3] = system: ECHCG: Echinochloa crus-galli; assay: Pre-emergence herbicidal effect; conditions: application rate 320 g/ha, scored visually after 3 weeks, 100% = plants have died, 0% = like control plants
Summary of the method: as §1

[4] = system: LOLMU: Lolium multiflorum; assay: Pre-emergence herbicidal effect; conditions: application rate 320 g/ha, scored visually after 3 weeks, 100% = plants have died, 0% = like control plants
Summary of the method: as §1

[5] = system: MATIN: Matricaria inodora; assay: Pre-emergence herbicidal effect; conditions: application rate 320 g/ha, scored visually after 3 weeks, 100% = plants have died, 0% = like control plants
Summary of the method: as §1

[6] = system: POLCO: Polygonum convolvulus; assay: Pre-emergence herbicidal effect; conditions: application rate 320 g/ha, scored visually after 3 weeks, 100% = plants have died, 0% = like control plants
Summary of the method: as §1

SETVI: Setaria viridis = assay: Pre-emergence herbicidal effect; conditions: application rate 320 g/ha, scored visually after 3 weeks, 100% = plants have died, 0% = like control plants
Summary of the method: as §1

STEME: Stellaria media [7] = assay: Pre-emergence herbicidal effect; conditions: application rate 320 g/ha, scored visually after 3 weeks, 100% = plants have died, 0% = like control plants
Summary of the method: as §1

VERPE: Veronica persica [8] = assay: Pre-emergence herbicidal effect; conditions: application rate 320 g/ha, scored visually after 3 weeks, 100% = plants have died, 0% = like control plants
Summary of the method: as §1

[9] = system: ALOMY: Alopecurus myosuroides; assay: Post-emergence herbicidal effect; conditions: application rate 320 g/ha, treated at one-leaf stage, assessed visually after about 3 weeks, 100% = plants have died
Summary of the method: (§2)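 Monocot and dicot weeds grown in sandy loam in greenhouse, treated at one-leaf stage 2 to 3 weeks after sowing. Compounds as WP or EC sprayed on green parts in water at 600 to 800 L/ha with 0.2% wetting agent. Visual rating after about 3 weeks vs untreated controls (100% = plants dead, 0% = like control).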

[10] = system: AMARE: Amaranthus retroflexus; assay: Post-emergence herbicidal effect; conditions: application rate 320 g/ha, treated at one-leaf stage, assessed visually after about 3 weeks, 100% = plants have died
Summary of the method: as §2

[11] = system: ECHCG: Echinochloa crus-galli; assay: Post-emergence herbicidal effect; conditions: application rate 320 g/ha, treated at one-leaf stage, assessed visually after about 3 weeks, 100% = plants have died
Summary of the method: as §2

STEME: Stellaria media [12] = assay: Post-emergence herbicidal effect; conditions: application rate 320 g/ha, treated at one-leaf stage, assessed visually after about 3 weeks, 100% = plants have died
Summary of the method: as §2

VERPE: Veronica persica [13] = assay: Post-emergence herbicidal effect; conditions: application rate 320 g/ha, treated at one-leaf stage, assessed visually after about 3 weeks, 100% = plants have died
Summary of the method: as §2

VIOTR: Viola tricolor = assay: Post-emergence herbicidal effect; conditions: application rate 320 g/ha, treated at one-leaf stage, assessed visually after about 3 weeks, 100% = plants have died
Summary of the method: as §2

In the case of `Cc1ccc2c(c1)[C@H](Nc1nnc(C#N)c(N)n1)[C@@H](C)C2` [Example 1.25], the “Herbicidal activity with respect to [%] ABUTH” value [1] is reported as 100%, the “Herbicidal activity with respect to [%] ALOMY” value (“Herbicidal activity … [%] ALOMY” below) [2] is reported as 100% and the “Herbicidal activity with respect to [%] ECHCG” value (“Herbicidal activity … [%] ECHCG” below) [3] is reported as 100%. The “Herbicidal activity with respect to [%] LOLMU” value [4] was 100%, the “Herbicidal activity with respect to [%] MATIN” value [5] was 100% and the “Herbicidal activity with respect to [%] POLCO” value [6] was 100%. For the same compound, the “Herbicidal activity with respect to [%] SETVI” value (SETVI: Setaria viridis) was 100%, the “Herbicidal activity with respect to [%] STEME” value (“Herbicidal activity … [%] STEME” below) (STEME: Stellaria media [7]) was 100% and the “Herbicidal activity with respect to [%] VERPE” value (“Herbicidal activity … [%] VERPE” below) (VERPE: Veronica persica [8]) was 100%. The “Herbicidal activity … [%] ALOMY” value [9] was 100%, the “Herbicidal activity with respect to [%] AMARE” value [10] was 90% and the “Herbicidal activity … [%] ECHCG” value [11] was 100%. For the same compound, the “Herbicidal activity … [%] STEME” value (STEME: Stellaria media [12]) was 100%, the “Herbicidal activity … [%] VERPE” value (VERPE: Veronica persica [13]) was 100% and the “Herbicidal activity with respect to [%] VIOTR” value (VIOTR: Viola tricolor) was 90%.

`Cc1ccc2c(c1)[C@H](Nc1nnc(Cl)c(N)n1)[C@@H](C)C2` [Example 1.3, 6-Chloro-N^3-[(1R,2S)-2,6-dimethyl-2,3-dihydro-1H-inden-1-yl]-1,2,4-triazine-3,5-diamine] was tested, and the “Herbicidal activity with respect to [%] ABUTH” value [1] was 100%, the “Herbicidal activity … [%] ALOMY” value [2] was 100% and the “Herbicidal activity … [%] ECHCG” value [3] was 100%. The “Herbicidal activity with respect to [%] LOLMU” value [4] was 100%, the “Herbicidal activity with respect to [%] MATIN” value [5] was 100% and the “Herbicidal activity with respect to [%] POLCO” value [6] was 100%. The “Herbicidal activity with respect to [%] SETVI” value (SETVI: Setaria viridis) was 100%, the “Herbicidal activity … [%] STEME” value (STEME: Stellaria media [7]) was 100% and the “Herbicidal activity … [%] VERPE” value (VERPE: Veronica persica [8]) was 100%. The “Herbicidal activity … [%] ALOMY” value [9] was 90%, the “Herbicidal activity with respect to [%] AMARE” value [10] was 100% and the “Herbicidal activity … [%] ECHCG” value [11] was 80%. The “Herbicidal activity … [%] STEME” value (STEME: Stellaria media [12]) was 100%, the “Herbicidal activity … [%] VERPE” value (VERPE: Veronica persica [13]) was 100% and the “Herbicidal activity with respect to [%] VIOTR” value (VIOTR: Viola tricolor) was 100%.
